In the test the target is T1, nidogen (Mus musculus, UniProt P10493).
T1 sequence (P10493 29-1245): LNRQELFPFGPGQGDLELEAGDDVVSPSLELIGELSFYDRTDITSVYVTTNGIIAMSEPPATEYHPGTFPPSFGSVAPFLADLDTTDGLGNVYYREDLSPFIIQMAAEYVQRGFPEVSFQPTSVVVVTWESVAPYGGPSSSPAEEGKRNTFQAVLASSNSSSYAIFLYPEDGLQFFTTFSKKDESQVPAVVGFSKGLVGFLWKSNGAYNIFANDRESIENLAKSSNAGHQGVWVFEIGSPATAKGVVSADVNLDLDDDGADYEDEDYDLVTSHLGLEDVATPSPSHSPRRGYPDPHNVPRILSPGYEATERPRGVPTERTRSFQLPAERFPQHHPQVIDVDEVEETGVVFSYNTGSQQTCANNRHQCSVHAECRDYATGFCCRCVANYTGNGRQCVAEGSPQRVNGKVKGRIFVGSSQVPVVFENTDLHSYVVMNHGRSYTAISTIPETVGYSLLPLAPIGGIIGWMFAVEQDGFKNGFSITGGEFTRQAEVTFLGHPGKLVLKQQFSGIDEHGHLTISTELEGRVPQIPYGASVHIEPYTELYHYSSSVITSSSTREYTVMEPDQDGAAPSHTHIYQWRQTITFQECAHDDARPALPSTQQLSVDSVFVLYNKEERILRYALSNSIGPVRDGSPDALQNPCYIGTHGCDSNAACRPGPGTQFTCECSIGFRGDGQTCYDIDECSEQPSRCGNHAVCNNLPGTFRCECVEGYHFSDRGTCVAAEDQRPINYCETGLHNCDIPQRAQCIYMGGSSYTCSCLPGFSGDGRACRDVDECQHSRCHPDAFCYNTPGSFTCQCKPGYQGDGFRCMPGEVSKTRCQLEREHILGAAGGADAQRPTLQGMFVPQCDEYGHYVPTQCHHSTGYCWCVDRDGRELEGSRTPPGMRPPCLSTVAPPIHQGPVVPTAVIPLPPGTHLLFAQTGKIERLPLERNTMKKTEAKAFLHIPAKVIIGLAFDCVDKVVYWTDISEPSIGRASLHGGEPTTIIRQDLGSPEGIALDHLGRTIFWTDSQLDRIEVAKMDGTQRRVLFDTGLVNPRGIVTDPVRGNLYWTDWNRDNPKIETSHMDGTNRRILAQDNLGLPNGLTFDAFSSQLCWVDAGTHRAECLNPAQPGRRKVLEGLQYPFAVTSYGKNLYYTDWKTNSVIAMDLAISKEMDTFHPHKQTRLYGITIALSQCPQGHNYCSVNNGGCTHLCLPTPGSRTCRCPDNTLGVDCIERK
Put plainly: Radioligand competition assay: inhibition of 125I-laminin fragment P1 binding to nidogen. The conditions noted are these: for inhibitory activity in words: laminin-nidogen binding competition; for IC50 higher / less active than fragment P1: relative to laminin fragment P1; for higher inhibitory activity compared with loop a,b: relative to synthetic loop a,b peptide. Here is the method: A radioligand competition assay was used for measurement of relative binding affinities (Mann K. et al. (1988), Eur. J. Biochem., 178, 71-80; Fox, J. W. et al. (1991), EMBO J., 10, 3137-3146). A fixed concentration of recombinant nidogen (0.2 nM) was incubated overnight at 4° C. with inhibitors at varying concentrations, followed by the addition of ^125 I-labeled laminin fragment P1 (0.01 nM; 10,000-20,000 c.p.m.) for the same incubation period. Bound and non-bound fragment P1 was then separated by antibodies against nidogen. Competitor concentrations causing 50% inhibition (IC50) were determined from dose-response profiles. […] IC50 values compared from different assays were normalized to a single fragment P1 value.

The mark [1] stands for this setting: Table II, synthetic loops of EGF-like repeat 4 and smaller synthetic and proteolytic fragments, read-out: IC50 (inhibitory capacity).
Setting [2] is: Table III, amino acid replacements in heptapeptide NIDPNAV, read-out: IC50 (inhibitory capability for laminin-nidogen binding).
Where [3] appears, read: Table IV, recombinant mutants and chimeric structures of γ1III4, read-out: IC50 (inhibitory activity for laminin-nidogen binding).

Where two headings read alike, the source gives them in different places. Where a SMILES comes first, the peptide text is derived from it. Where no end group is shown, it is not given here.

Regarding AVGNCNR [Th1, AVGNCNR], the “inhibitory activity in words” value is “inactive”. The half-maximal inhibitory concentration (IC50) under setting [1] was above 30000 nM.

On to `CC(C)C[C@H](NC(=O)[C@H](CS)NC(=O)[C@H](CCC(=O)O)NC(=O)CNC(=O)[C@@H](NC(=O)[C@H](CC(C)C)NC(=O)[C@H](CCCNC(=N)N)NC(=O)[C@H](CC(N)=O)NC(=O)[C@H](CS)NC(=O)[C@H](CC(N)=O)NC(=O)CNC(=O)[C@@H](NC(=O)[C@H](C)NC(=O)[C@H](CC(N)=O)NC(=O)[C@@H]1CCCN1C(=O)[C@@H](N)CC(=O)O)C(C)C)[C@@H](C)O)C(=O)O` [E2, DPNAVGNCNRLTGECL] (H-DPNAVGNCNRLTGECL-OH; C-terminus assumed), for which, under setting [1], the IC50 was 3000 nM.

As for `CC[C@H](C)[C@@H]1NC(=O)[C@@H](NC(=O)[C@H](CCCCN)NC(=O)[C@H](CC(C)C)NC(=O)[C@@H]2CSSC[C@H](NC(=O)[C@@H](N)CCC(N)=O)C(=O)N[C@@H](CC(N)=O)C(=O)N[C@@H](CC(=O)O)C(=O)N[C@@H](CC(N)=O)C(=O)N[C@@H]([C@@H](C)CC)C(=O)N[C@@H](CC(=O)O)C(=O)N3CCC[C@H]3C(=O)N[C@@H](CC(N)=O)C(=O)N[C@@H](C)C(=O)N[C@@H](C(C)C)C(=O)NCC(=O)N2)CSSC[C@@H](C(=O)N[C@@H](CC(=O)O)C(=O)O)NC(=O)[C@H](Cc2ccc(O)cc2)NC(=O)[C@H](Cc2ccccc2)NC(=O)CNC(=O)[C@H](C)NC(=O)[C@H]([C@@H](C)O)NC(=O)[C@H](CC(N)=O)NC(=O)[C@H](Cc2ccc(O)cc2)NC1=O` [loop a,c, oxidized, QCNDNIDPNAVGCLKC1YNTAGFYCD] (HELM PEPTIDE1{Q.C.N.D.N.I.D.P.N.A.V.G.C.L.K.C.I.Y.N.T.A.G.F.Y.C.D}$PEPTIDE1,PEPTIDE1,2:R3-13:R3|PEPTIDE1,PEPTIDE1,16:R3-25:R3$$$V2.0; N-terminus and C-terminus assumed), the “IC50 higher / less active than fragment P1” value is reported as 300 fold and the “higher inhibitory activity compared with loop a,b” value is reported as 20 fold. `CC[C@H](C)[C@@H]1NC(=O)[C@@H](NC(=O)[C@@H](N)CCCCN)CSSC[C@@H](C(=O)N[C@@H](CC(=O)O)C(=O)O)NC(=O)[C@H](Cc2ccc(O)cc2)NC(=O)[C@H](Cc2ccccc2)NC(=O)CNC(=O)[C@H](C)NC(=O)[C@H]([C@@H](C)O)NC(=O)[C@H](CC(N)=O)NC(=O)[C@H](Cc2ccc(O)cc2)NC1=O` [loop c, oxidized] (HELM PEPTIDE1{K.C.I.Y.N.T.A.G.F.Y.C.D}$PEPTIDE1,PEPTIDE1,2:R3-11:R3$$$V2.0): the half-inhibitory concentration (IC50) under setting [1] was above 200000 nM and the IC50 (read-out: IC50) lay in the range of 90000 to 200000 nM. Consider NVDPSAV [NVDPSAV], for which the IC50 under setting [2] was above 180000 nM. For the compound “γ1III4Y819/825-A: recombinant γ1III4 with Tyr819 and Tyr825 mutated to Ala”, under setting [3], the 50% inhibitory concentration (IC50) is 1.5 nM. The “decrease in activity after reduction and alkylation” value (reduced and alkylated under denaturing conditions versus disulfide-bonded form) is given as ~ 300 fold. As for `CC[C@H](C)[C@H](NC(=O)[C@H](CC(N)=O)NC(=O)[C@H](CC(=O)O)NC(=O)[C@H](CC(N)=O)NC(=O)[C@H](CS)NC(=O)[C@H](CCC(N)=O)NC(=O)[C@H](CS)NC(=O)[C@@H]1CCCN1)C(=O)N[C@@H](CC(=O)O)C(=O)N1CCC[C@H]1C(=O)N[C@@H](CC(N)=O)C(=O)N[C@@H](C)C(=O)N[C@H](C(=O)NCC(=O)N[C@@H](CC(N)=O)C(=O)N[C@@H](CS)C(=O)N[C@@H](CC(N)=O)C(=O)N[C@@H](CCCNC(=N)N)C(=O)N[C@@H](CC(C)C)C(=O)N[C@H](C(=O)NCC(=O)N[C@@H](CCC(=O)O)C(=O)N[C@@H](CS)C(=O)N[C@@H](CC(C)C)C(=O)O)[C@@H](C)O)C(C)C` [loop a,b, non-oxidized] (H-PCQCNDNIDPNAVGNCNRLTGECL-OH; N-terminus and C-terminus assumed), the “IC50 higher / less active than fragment P1” value is 5,000 fold. Regarding “γ1III4ab3cd: recombinant chimera: loop a,b of repeat 4 with loop c,d of repeat 3 (PCQCNDNIDPNAVGNCNRLTGECLKCPTGTAGKRCELCDDGYFGDPLGSNGPVRLCR)”, the “higher inhibitory activity compared with loop a,b” value is 3 fold. For the same compound, the IC50 under setting [3] was 80 nM. Further, for the setting “loop c replaced by loop c of a non-binding repeat, relative to the Tyr819 modification”, the “further decrease in activity” value is listed as 30 fold. Also, the IC50 (read-out: IC50) stood at 80 nM.

As to NIDPNAVGN [NIDPNAVGN], the IC50 runs as follows: under setting [1], 600 nM; (read-out: IC50) 600 nM. With “γ1III3ab4cd: recombinant chimera: loop a,b of repeat 3 with loop c,d of repeat 4 (PCPCPGGSSCAIVPKTKEVVCTHCIYNTAGFYCDRCKEGFFGNPLAPNPADKCK)”, the 50% inhibitory concentration (IC50) under setting [3] was found to be 1100 nM. On to `CC[C@H](C)[C@@H]1NC(=O)[C@H](CC(N)=O)NC(=O)[C@H](CC(=O)O)NC(=O)[C@H](CC(N)=O)NC(=O)[C@@H]2CSSC[C@@H](C(=O)N[C@@H](CC(C)C)C(=O)O)NC(=O)[C@H](CCC(=O)O)NC(=O)CNC(=O)[C@H]([C@@H](C)O)NC(=O)[C@H](CC(C)C)NC(=O)[C@H](CCCNC(=N)N)NC(=O)[C@H](CC(N)=O)NC(=O)[C@H](CSSC[C@H](NC(=O)[C@@H]3CCCN3)C(=O)N[C@@H](CCC(N)=O)C(=O)N2)NC(=O)[C@H](CC(N)=O)NC(=O)CNC(=O)[C@H](C(C)C)NC(=O)[C@H](C)NC(=O)[C@H](CC(N)=O)NC(=O)[C@@H]2CCCN2C(=O)[C@H](CC(=O)O)NC1=O` [loop a,b, oxidized] (HELM PEPTIDE1{P.C.Q.C.N.D.N.I.D.P.N.A.V.G.N.C.N.R.L.T.G.E.C.L}$PEPTIDE1,PEPTIDE1,2:R3-16:R3|PEPTIDE1,PEPTIDE1,4:R3-23:R3$$$V2.0), for which the IC50 (read-out: IC50) was found to be 400 nM. NVDPNAS [NVDPNAS]: the IC50 under setting [2] is above 160000 nM.

With “γ1III4N802-S: recombinant γ1III4 with Asn802 mutated to Ser”, the “reduction in activity of mutant” value (relative to wild-type γ1III4) is reported as ~ 100,000 fold. For “γ1III4: recombinant nidogen binding EGF-like repeat 4 of laminin γ1 chain domain III, 56 residues [reference compound]”, the half-inhibitory concentration (IC50) came to 0.05 nM under setting [3] and 0.05 nM (read-out: IC50). Take `NC(=O)CC[C@H](NC(=O)[C@H](CS)NC(=O)[C@@H]1CCCN1)C(=O)N[C@@H](CS)C(=O)N[C@@H](CC(N)=O)C(=O)O` [E3, PCQCN] (H-PCQCN-OH; N-terminus assumed): the “inhibitory activity in words” value was “inactive”. In addition, the IC50 under setting [1] was above 96000 nM.

Consider “γ1III4Y819/825-A, reduced: γ1III4Y819/825-A reduced and alkylated under denaturing conditions”, for which the 50% inhibitory concentration (IC50) under setting [3] stood at 430 nM. Consider NIDPNA [NIDPNA], for which the IC50 under setting [1] is above 460000 nM. For the compound NIDPNAV [NIDPNAV], the IC50 under setting [1] came out at 800 nM and the IC50 (read-out: IC50) amounted to 800 nM. Regarding NVDPSAS [NVDPSAS], the IC50 under setting [2] is above 290000 nM. For IDPNAVGN [IOPNAVGN], the IC50 under setting [1] was found to be 1600 nM. Regarding “γ1III4Y819-A: recombinant γ1III4 with Tyr819 mutated to Ala”, under setting [3], the IC50 is 3 nM. For “γ1III4Y825-A: recombinant γ1III4 with Tyr825 mutated to Ala”, the “inhibitory activity in words” value is listed as “without significant effect on inhibitory activity”. For the same compound, the IC50 under setting [3] was 0.06 nM.

The values above are taken from patent US5493008A, “Two non-contiguous regions contribute to nidogen binding to a single EGF-like motif of the laminin γ1 chain” (The University Of Virginia Patent Foundation, priority 1994, dated 1996).
